Earlier results on 17 compounds are cited in PMC10655862 (Methods in enzymology, 2023).

The test system of one data set is AKR1D1. The following applies: 5β-reduction, fluorometric, pH 6.0, 37 °C; ref Chen et al., (2011).
Another data set concerns the target AKR1C2. As to conditions: AKR1C2, competitive inhibition (C); ref Bauman et al. (2005).
A further data set deals with AKR1C3. As to conditions: AKR1C3, competitive inhibition (C); ref Bauman et al. (2005).
The target of another data set is AKR1C1. The following applies: AKR1C1, competitive inhibition (C); ref Bauman et al. (2005).
In the next data set the test system is AKR1D1 (5β-reductase). As to conditions: ref Chen et al., (2011); for Type of inhibition (5β-reductase): inhibition of testosterone reduction; for inhibition of AKR1D1, in words: reduction of [4-14C]-testosterone.
For data set [1], the target named is 5α-reductase type 2 (SRD5A2). As to conditions: ref Bull et al. (1996).
In the next data set the target is aldose reductase AKR1B1. As to conditions: NADPH binding to AKR1B1, literature comparison; ref not given.

The structures appear in SMILES notation. Where two headings read alike, the source gives them in different places. Where only a bound is given, the exact number is not on record here.

As usually defined, the Km is the concentration of substrate that gives half-maximal velocity. As for `C[C@]12CC[C@H]3[C@@H](CCC4=CC(=O)C=C[C@@]43C)[C@@H]1CC[C@@H]2O` [1,4-Androstadien-17β-ol-3-one], the Km with AKR1D1 is 3.2 ± 0.2 µM.

For `O=C(O)c1ccc(C(=O)c2ccccc2)cc1` [4-Benzoylbenzoic acid], the results for the Ki at AKR1C2, on AKR1C3 and at AKR1C1 were 13300 nM, 1900 nM and 12500 nM, respectively. Also, the “Type of inhibition (5β-reductase)” value in the data set on AKR1D1 (5β-reductase) is on record as “n.i”. Also, the “inhibition of AKR1D1, in words” value in the data set with AKR1D1 (5β-reductase) was “ineffective”. With `CC(C)CCC[C@@H](C)[C@H]1CC[C@H]2[C@@H]3[C@H](O)CC4=CC(=O)CC[C@]4(C)[C@H]3CC[C@]12C` [4-Cholesten-7α-ol-3-one], in the data set on AKR1D1, the Km is 0.8 ± 0.2 µM.

As to `C[C@]12CC[C@H]3[C@@H](CCC4=CC(=O)CC[C@@H]43)[C@@H]1CC[C@@H]2O` [4-Estren-l7β-ol-3-one], in the data set with AKR1D1, the Km was 3 ± 0.5 µM. On to `C[C@H](CCC(=O)O)[C@H]1CC[C@H]2[C@@H]3[C@H](O)C[C@@H]4C[C@H](O)CC[C@]4(C)[C@H]3CC[C@]12C` [Chenodeoxycholic acid], for which the Ki on AKR1C2 was 17 nM; at AKR1C3, 10000 nM; at AKR1C1 it was 8300 nM. The “inhibition of AKR1D1, in words” value in the data set with AKR1D1 (5β-reductase) is reported as “weak non-competitive inhibitors”.

Consider `CC(C)CCC[C@@H](C)[C@H]1CC[C@H]2[C@@H]3CCC4=CC(=O)CC[C@]4(C)[C@H]3CC[C@]12C` [Cholestenone], for which the Michaelis constant (Km) with AKR1D1 was 0.3 ± 0.1 µM. Consider `C[C@]12C[C@H](O)[C@H]3[C@@H](CCC4=CC(=O)CC[C@@]43C)[C@@H]1CC[C@@H]2C(=O)CO` [Corticosterone], for which the Km in the data set on AKR1D1 was 2.2 ± 0.5 µM. As to `C[C@]12CCC(=O)C=C1CC[C@@H]1[C@@H]2[C@@H](O)C[C@@]2(C)[C@H]1CC[C@]2(O)C(=O)CO` [Cortisol], the Km in the data set with AKR1D1 was 13.1 ± 1.8 µM. Consider `C[C@]12CCC(=O)C=C1CC[C@@H]1[C@@H]2C(=O)C[C@@]2(C)[C@H]1CC[C@]2(O)C(=O)CO` [Cortisone], for which the Km in the data set with AKR1D1 is 15.1 ± 0.3 µM. `C[C@]12CC[C@H]3[C@@H](CCC4=CC(=O)CC[C@@]43C)[C@@H]1CC[C@H]2O` [Epitestosterone]: the Km with AKR1D1 is 2.9 ± 0.6 µM. With `CC(C)(C)NC(=O)[C@H]1CC[C@H]2[C@@H]3CC[C@H]4NC(=O)C=C[C@]4(C)[C@H]3CC[C@]12C` [Finasteride], the figures for the Ki in data set [1] (competitive inhibition (C)) and in data set [1] (mechanism-based inhibition (MBI)) were 26 nM and < 1 nM, respectively. Moreover, the “inhibition of AKR1D1, in words” value in the data set with AKR1D1 (5β-reductase) is reported as “competitive inhibitor”.

For the compound `COc1ccc2c(c1)c(CC(=O)O)c(C)n2C(=O)c1ccc(Cl)cc1` [Indomethacin], in the data set on AKR1D1 (5β-reductase), the “Type of inhibition (5β-reductase)” value was “n.i” and the “inhibition of AKR1D1, in words” value is recorded as “ineffective”. In the case of `Cc1cccc(Nc2ccccc2C(=O)O)c1C` [Mefenamic acid], the Ki on AKR1C1 was 800 nM. Also, in the data set with AKR1D1 (5β-reductase), the “Type of inhibition (5β-reductase)” value is given as “n.i” and the “inhibition of AKR1D1, in words” value is “ineffective”.

The term Kd denotes the constant that tells how readily two partners part at equilibrium. `NC(=O)C1=CN([C@@H]2O[C@H](COP(=O)(O)OP(=O)(O)OC[C@H]3O[C@@H](n4cnc5c(N)ncnc54)[C@H](OP(=O)(O)O)[C@@H]3O)[C@@H](O)[C@H]2O)C=CC1` [NADPH]: the Kd at aldose reductase AKR1B1 is 9 nM.

As to `C[C@]12CC[C@H]3[C@@H](CCC4=CC(=O)CC[C@@]43C)[C@@H]1CC[C@@H]2O` [Testosterone], the Km in the data set on AKR1D1 is 2.7 ± 1.2 µM. Regarding `C[C@H](CCC(=O)O)[C@H]1CC[C@H]2[C@@H]3[C@@H](O)C[C@@H]4C[C@H](O)CC[C@]4(C)[C@H]3CC[C@]12C` [Ursodeoxycholic acid], the Ki at AKR1C2 was 11 nM; on AKR1C3, 1300 nM; at AKR1C1, 4900 nM. Further, the “inhibition of AKR1D1, in words” value in the data set with AKR1D1 (5β-reductase) is “weak non-competitive inhibitors”.

For `C[C@]12CCC(=O)C=C1CC[C@@H]1[C@@H]2CC[C@]2(C)C(=O)CC[C@@H]12` [Δ^4-Androstene-3,17-dione], the Km in the data set on AKR1D1 was 0.9 ± 0.2 µM.
